# In US20090137661A1, “PLANT DERIVED COMPOUNDS AND COMPOUND FORMULAE CONTAINING THE SAME FOR THE TREATMENT OF CERVICAL CANCER” (priority 2007, published 2009):
# Like-named read-outs stand apart in the source and are kept apart here.
# Tests used:
# HeLa cells [1] = test: Cytotoxicity assay (MTT assay) on HeLa cells; settings: for IC50: Homo sapiens, HeLa; for cytotoxicity to HeLa cells compared with Doxorubicin HCl: under the corresponding conditions
# Experimental: HeLa cell line was obtained from Dr. S. S. Shen (Biomedical Engineering Research Laboratories of Industrial Technology Research Institute of Taiwan). HeLa cells are adherent cells and were propagated and maintained in Dulbecco's modified Eagle's medium (DMEM) supplemented with 10% fetal bovine serum (FBS), […] sodium bicarbonate (NaHCO3), 1 mM sodium pyruvate, and 0.1 mM non-essential amino acid.
# (§1) Cytotoxicity Assay (MTT Assay)
# The cytotoxicity of the compounds set forth herein to HeLa cells and HUVEC cells were determined by the MTT assay. The HUVEC cells were used to understand the cytotoxicity of said compounds to normal human cells. Besides, doxorubicin HCl was used as a comparative example so as to investigate the efficacy of the compounds according to the embodiments of the present invention.
# Briefly, the MTT assay comprises the following steps: • (A) Cells were seeded in 96-well plates 3 hours before treatment, wherein the density of HeLa cell is 1×10^4 cells per well and the density of HUVEC cell is 2×10^4 cells per well; • (B) Cells were then treated with various concentrations of tested samples and incubated for a predetermined period (24, 48, and 72 hours); • (C) After the predetermined periods expired, the tested samples were removed and 100 μl MTT reagent (1 mg/ml) was added to each well; • (D) The plates were incubated at 37° C. with 5% of CO2 for 5 hours; • (E) The MTT reagent was removed and 100 μl DMSO was added to each well; • (F) The optical density (O.D.) of each well was determined by ELISA reader at a wavelength of 560 nm.
# Each experiment was repeated for 3 times and the result shown in the tables herein were the mean value of the 3 repetitions. The O.D. of the vehicle control and experimental groups were recorded. The cell survival rate of each sample was calculated as follows:
# Cell survival rate(%)=O.D.control/O.D.experimental*100%
# Then, the cell survival rate was plotted against the compound concentration and the IC50 value of each compound was calculated by the GraFit data analysis software (Erithacus Software Ltd.).
# HUVEC cells = test: Cytotoxicity assay (MTT assay) on HUVEC cells; format: cell-based, human; settings: for IC50: Homo sapiens, HUVEC cells
# Source text: Human umbilical vein endothelial cells (HUVEC) were purchased from Food Industry Research and Development Institute in Hsin-Chu City, Taiwan. HUVEC cells were propagated and maintained in Medium 199 supplemented with 10% FBS, Heparin, and […].
# as §1
# HeLa cells [2] = test: MTT assay within the anti-infection screening platform; format: cell-based, human; settings: 48 hours, concentrations inhibiting HPV 16 pseudovirus
# Source text: (§2) Carrageenan was used as positive control. […] The cell survival rate and IC50 of each sample were obtained in accordance with the method stated above.
# HPV 16 pseudovirus = test: Screening for anti-infection compounds (GFP-expressing HPV 16 pseudovirus infecting HeLa cells); format: cell-based, human papilloma virus 16; settings: Pseudovirus, HeLa, 48 h, read-out: IC50 for inhibiting HPV 16 pseudoviruses
# Experimental: […] were co-transfected with codon-modified papillomavirus capsid genes, L1 and L2, plasmid: p16shell, and a GFP reporter plasmid, pClneo-GFP, to monitor the infectivity of the stock.
# The GFP-expressing HPV 16 pseudoviruses were prepared and harvested in accordance with the protocol provided by the National Cancer Institute (USA). Said protocol is available on line at http://home.ccr.cancer.gov/lco/production.asp which is incorporated herein by reference in its entirety.
# In the present application, the GFP-expressing HPV 16 pseudoviruses used have titers of about 4*10^8 infectious units per ml.
# HeLa cells were seeded in 96-well plates at a density of 6×10^3 cells per well. 24 hours later, 2×HPV 16 pseudoviruses of various volumes were added. The signal to background ratio of each volume of the HPV 16 pseudoviruses was illustrated in FIG. 2.
# When choosing screening platform, the infection rate should be around 20%. […] Under this dosage, the signal to background ratio is 2.0-2.5.
# as §2
# [3] = 24 h, read-out: IC50 at 24 hours, HeLa
# [4] = 48 h, read-out: IC50 at 48 hours, HeLa
# [5] = 72 h, read-out: IC50 at 72 hours, HeLa
# [6] = 24 hours, read-out: IC50 at 24 hours, HUVEC
# [7] = 48 hours, read-out: IC50 at 48 hours, HUVEC
# [8] = 72 hours, read-out: IC50 at 72 hours, HUVEC
smiles,measurement,setting,value
"O=C(O)[C@H]1O[C@@H](Oc2cc3oc(-c4ccccc4)cc(=O)c3c(O)c2O)[C@H](O)[C@@H](O)[C@@H]1O [Compound G, baicalin]",HeLa Cell Survival Rate,"HeLa cells [1]; 0.1 μg/ml, 24 hrs",104%
same,HeLa Cell Survival Rate,"HeLa cells [1]; 0.1 μg/ml, 48 hrs",94%
same,HeLa Cell Survival Rate,"HeLa cells [1]; 0.1 μg/ml, 72 hrs",97%
same,HeLa Cell Survival Rate,"HeLa cells [1]; 1 μg/ml, 24 hrs",103%
same,HeLa Cell Survival Rate,"HeLa cells [1]; 1 μg/ml, 48 hrs",96%
same,HeLa Cell Survival Rate,"HeLa cells [1]; 1 μg/ml, 72 hrs",97%
same,HeLa Cell Survival Rate,"HeLa cells [1]; 10 μg/ml, 24 hrs",109%
same,HeLa Cell Survival Rate,"HeLa cells [1]; 10 μg/ml, 48 hrs",98%
same,HeLa Cell Survival Rate,"HeLa cells [1]; 10 μg/ml, 72 hrs",97%
same,HeLa Cell Survival Rate,"HeLa cells [1]; 100 μg/ml, 24 hrs",68%
same,HeLa Cell Survival Rate,"HeLa cells [1]; 100 μg/ml, 48 hrs",50%
same,HeLa Cell Survival Rate,"HeLa cells [1]; 100 μg/ml, 72 hrs",37%
same,HUVEC/HeLa ratio of IC50,HeLa cells [1]; 72 hours,2.4
same,IC50,HeLa cells [1]; [3],> 125 µg/mL
same,IC50,HeLa cells [1]; [4],> 125 µg/mL
same,IC50,HeLa cells [1]; [5],92 µg/mL
same,HUVEC Cell Survival Rate,"HUVEC cells; 1.25 μg/ml, 24 hrs",98%
same,HUVEC Cell Survival Rate,"HUVEC cells; 1.25 μg/ml, 48 hrs",96%
same,HUVEC Cell Survival Rate,"HUVEC cells; 1.25 μg/ml, 72 hrs",88%
same,HUVEC Cell Survival Rate,"HUVEC cells; 12.5 μg/ml, 24 hrs",97%
same,HUVEC Cell Survival Rate,"HUVEC cells; 12.5 μg/ml, 48 hrs",101%
same,HUVEC Cell Survival Rate,"HUVEC cells; 12.5 μg/ml, 72 hrs",75%
same,HUVEC Cell Survival Rate,"HUVEC cells; 125 μg/ml, 24 hrs",81%
same,HUVEC Cell Survival Rate,"HUVEC cells; 125 μg/ml, 48 hrs",76%
same,HUVEC Cell Survival Rate,"HUVEC cells; 125 μg/ml, 72 hrs",56%
same,IC50,HUVEC cells; [6],> 125 µg/mL
same,IC50,HUVEC cells; [7],> 125 µg/mL
same,IC50,HUVEC cells; [8],218 µg/mL
"O=C(O)c1cc(O)c(O)c(O)c1 [Compound D, gallic acid]",HeLa Cell Survival Rate,"HeLa cells [1]; 0.125 μg/ml, 24 hrs",85%
same,HeLa Cell Survival Rate,"HeLa cells [1]; 0.125 μg/ml, 48 hrs",96%
same,HeLa Cell Survival Rate,"HeLa cells [1]; 0.125 μg/ml, 72 hrs",101%
same,HeLa Cell Survival Rate,"HeLa cells [1]; 1.25 μg/ml, 24 hrs",84%
same,HeLa Cell Survival Rate,"HeLa cells [1]; 1.25 μg/ml, 48 hrs",91%
same,HeLa Cell Survival Rate,"HeLa cells [1]; 1.25 μg/ml, 72 hrs",103%
same,HeLa Cell Survival Rate,"HeLa cells [1]; 12.5 μg/ml, 24 hrs",90%
same,HeLa Cell Survival Rate,"HeLa cells [1]; 12.5 μg/ml, 48 hrs",82%
same,HeLa Cell Survival Rate,"HeLa cells [1]; 12.5 μg/ml, 72 hrs",99%
same,HeLa Cell Survival Rate,"HeLa cells [1]; 125 μg/ml, 24 hrs",17%
same,HeLa Cell Survival Rate,"HeLa cells [1]; 125 μg/ml, 48 hrs",11%
same,HeLa Cell Survival Rate,"HeLa cells [1]; 125 μg/ml, 72 hrs",8%
same,IC50,HeLa cells [1]; [3],37 µg/mL
same,IC50,HeLa cells [1]; [4],26 µg/mL
same,IC50,HeLa cells [1]; [5],45 µg/mL
same,cytotoxicity to HeLa cells compared with Doxorubicin HCl,HeLa cells [1],higher cytotoxicity
same,survival rates of HeLa cells in anti-infection screening,HeLa cells [2],higher than 80%
same,IC50,HPV 16 pseudovirus,8.9 µg/mL
"CC(C)[C@]12O[C@H]1[C@@H]1O[C@]13[C@]1(O[C@H]1C[C@H]1C4=C(CC[C@@]13C)C(=O)OC4)[C@@H]2O [Compound B, triptolide]",HeLa Cell Survival Rate,"HeLa cells [1]; 0.001 μg/ml, 24 hrs",98%
same,HeLa Cell Survival Rate,"HeLa cells [1]; 0.001 μg/ml, 48 hrs",94%
same,HeLa Cell Survival Rate,"HeLa cells [1]; 0.001 μg/ml, 72 hrs",81%
same,HeLa Cell Survival Rate,"HeLa cells [1]; 0.01 μg/ml, 24 hrs",89%
same,HeLa Cell Survival Rate,"HeLa cells [1]; 0.01 μg/ml, 48 hrs",37%
same,HeLa Cell Survival Rate,"HeLa cells [1]; 0.01 μg/ml, 72 hrs",15%
same,HeLa Cell Survival Rate,"HeLa cells [1]; 0.1 μg/ml, 24 hrs",33%
same,HeLa Cell Survival Rate,"HeLa cells [1]; 0.1 μg/ml, 48 hrs",14%
same,HeLa Cell Survival Rate,"HeLa cells [1]; 0.1 μg/ml, 72 hrs",9%
same,HeLa Cell Survival Rate,"HeLa cells [1]; 1 μg/ml, 24 hrs",26%
same,HeLa Cell Survival Rate,"HeLa cells [1]; 1 μg/ml, 48 hrs",12%
same,HeLa Cell Survival Rate,"HeLa cells [1]; 1 μg/ml, 72 hrs",9%
same,HeLa Cell Survival Rate,"HeLa cells [1]; 100 μg/ml, 24 hrs",20%
same,HeLa Cell Survival Rate,"HeLa cells [1]; 100 μg/ml, 48 hrs",13%
same,HeLa Cell Survival Rate,"HeLa cells [1]; 100 μg/ml, 72 hrs",9%
same,HUVEC/HeLa ratio of IC50,HeLa cells [1]; 24 hours,>13.9
same,HUVEC/HeLa ratio of IC50,HeLa cells [1]; 48 hours,20.9
same,HUVEC/HeLa ratio of IC50,HeLa cells [1]; 72 hours,29.3
same,IC50,HeLa cells [1]; [3],0.0721 µg/mL
same,IC50,HeLa cells [1]; [4],0.00724 µg/mL
same,IC50,HeLa cells [1]; [5],0.00287 µg/mL
same,cytotoxicity to HeLa cells compared with Doxorubicin HCl,HeLa cells [1],higher cytotoxicity
same,HUVEC Cell Survival Rate,"HUVEC cells; 0.001 μg/ml, 24 hrs",93%
same,HUVEC Cell Survival Rate,"HUVEC cells; 0.001 μg/ml, 48 hrs",102%
same,HUVEC Cell Survival Rate,"HUVEC cells; 0.001 μg/ml, 72 hrs",108%
same,HUVEC Cell Survival Rate,"HUVEC cells; 0.01 μg/ml, 24 hrs",94%
same,HUVEC Cell Survival Rate,"HUVEC cells; 0.01 μg/ml, 48 hrs",111%
same,HUVEC Cell Survival Rate,"HUVEC cells; 0.01 μg/ml, 72 hrs",114%
same,HUVEC Cell Survival Rate,"HUVEC cells; 0.1 μg/ml, 24 hrs",59%
same,HUVEC Cell Survival Rate,"HUVEC cells; 0.1 μg/ml, 48 hrs",36%
same,HUVEC Cell Survival Rate,"HUVEC cells; 0.1 μg/ml, 72 hrs",23%
same,HUVEC Cell Survival Rate,"HUVEC cells; 1 μg/ml, 24 hrs",71%
same,HUVEC Cell Survival Rate,"HUVEC cells; 1 μg/ml, 48 hrs",35%
same,HUVEC Cell Survival Rate,"HUVEC cells; 1 μg/ml, 72 hrs",23%
same,IC50,HUVEC cells; [6],> 1 µg/mL
same,IC50,HUVEC cells; [7],0.151 µg/mL
same,IC50,HUVEC cells; [8],0.084 µg/mL
